Source: ChEMBL document CHEMBL5150064 (J Med Chem, 2022)
pEC50, pKi: −log10 of the molar value. In brackets after ≈: the same amount, converted by molar mass. Activity calls are given as the source filed them. The calls are words filed in the database; no cut-off is given here.

How the values were obtained:
[1] = Lipophilicity, logD of compound in 1-Octanol/PBS at pH 7.4 by LC-MS/MS method; type: physicochemical
Homo sapiens [2] = species on record: Homo sapiens; assay: Selectivity ratio of Ki for PI3Kdelta (unknown origin) to Ki for PI3Kalpha (unknown origin)
[3] = target: Phosphatidylinositol 4,5-bisphosphate 3-kinase catalytic subunit alpha isoform (Homo sapiens, UniProt P42336); assay: Inhibition of PI3Kalpha (unknown origin) using PIP2:3PS as substrate in presence of ATP measured after 120 mins by ADP-Glo assay
Sequence of Phosphatidylinositol 4,5-bisphosphate 3-kinase catalytic subunit alpha isoform (Homo sapiens, UniProt P42336) (P42336 whole entry, canonical isoform): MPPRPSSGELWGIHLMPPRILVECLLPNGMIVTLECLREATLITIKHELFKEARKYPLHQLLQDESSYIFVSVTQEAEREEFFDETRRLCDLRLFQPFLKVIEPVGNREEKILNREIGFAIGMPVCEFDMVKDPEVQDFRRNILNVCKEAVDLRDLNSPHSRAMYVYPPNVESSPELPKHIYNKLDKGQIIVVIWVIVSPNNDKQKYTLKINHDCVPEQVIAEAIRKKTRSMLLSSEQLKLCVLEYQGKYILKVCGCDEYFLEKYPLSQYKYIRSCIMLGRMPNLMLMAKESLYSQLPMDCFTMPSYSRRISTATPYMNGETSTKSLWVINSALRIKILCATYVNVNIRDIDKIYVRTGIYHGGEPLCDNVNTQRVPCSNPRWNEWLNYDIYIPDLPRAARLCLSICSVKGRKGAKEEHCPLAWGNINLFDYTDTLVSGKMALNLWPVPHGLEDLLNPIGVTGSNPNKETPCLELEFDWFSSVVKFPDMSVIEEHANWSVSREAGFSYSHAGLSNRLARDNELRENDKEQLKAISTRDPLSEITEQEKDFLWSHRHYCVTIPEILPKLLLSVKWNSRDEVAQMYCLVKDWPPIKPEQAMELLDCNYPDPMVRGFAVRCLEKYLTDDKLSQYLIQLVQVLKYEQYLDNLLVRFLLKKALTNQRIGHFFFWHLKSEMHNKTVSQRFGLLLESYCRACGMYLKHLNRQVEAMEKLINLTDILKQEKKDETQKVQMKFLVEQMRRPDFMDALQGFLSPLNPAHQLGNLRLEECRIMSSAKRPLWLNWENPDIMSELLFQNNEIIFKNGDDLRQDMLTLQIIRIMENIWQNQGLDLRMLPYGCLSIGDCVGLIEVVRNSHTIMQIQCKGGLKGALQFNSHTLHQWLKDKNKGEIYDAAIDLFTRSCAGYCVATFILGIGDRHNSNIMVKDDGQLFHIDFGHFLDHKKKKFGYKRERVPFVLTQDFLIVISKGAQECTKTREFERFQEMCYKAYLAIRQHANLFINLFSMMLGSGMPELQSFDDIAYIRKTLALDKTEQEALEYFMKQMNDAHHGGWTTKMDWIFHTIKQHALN

[4] = Kinetic solubility of the compound at pH 7.4; type: physicochemical; conditions: buffer, read-out: Kinetic_solubility
[5] = Apparent permeability across apical to basolateral side in MDCK cells at 10 uM measured upto 180 mins by LC-MS/MS method; type: ADME, cell-based, Canis lupus familiaris; conditions: dog
[6] = Clearance in Sprague-Dawley rat plasma at 1 mg/kg, iv measured upto 8 hrs by LC-MS/MS analysis; type: ADME, organism-based
[7] = Oral bioavailability in Sprague-Dawley rat plasma at 5 mg/kg measured upto 8 hrs by LC-MS/MS method; type: ADME, organism-based
Homo sapiens [8] = species on record: Homo sapiens; assay: Selectivity ratio of EC50 for PI3Kalpha H1047R mutant in human HCC1954 cells assessed as reduction in PRAS40 phosphorylation to EC50 for wild type PI3Kalpha in human HDQ-P1 cells assessed as reduction in PRAS40 phosphorylation; type: cell-based
[9] = target: Phosphatidylinositol 4,5-bisphosphate 3-kinase catalytic subunit alpha isoform (Homo sapiens, UniProt P42336, H1047R)
Sequence of Phosphatidylinositol 4,5-bisphosphate 3-kinase catalytic subunit alpha isoform (Homo sapiens, UniProt P42336, H1047R) (P42336 whole entry H1047R, canonical isoform): as the sequence (P42336 whole entry, canonical isoform) above, with H1047R counted along it

[10] = test system: Phosphatidylinositol 4,5-bisphosphate 3-kinase catalytic subunit alpha isoform (Homo sapiens), P42336 [H1047R]; assay: Induction of P110alpha H1047R mutant degradation in human HCC1954 cells at 0.012 to 1 uM after 24 hrs; type: cell-based; conditions: dose 0.012-1 µM
Sequence of Phosphatidylinositol 4,5-bisphosphate 3-kinase catalytic subunit alpha isoform (Homo sapiens), P42336 [H1047R] (P42336 whole entry H1047R, canonical isoform): as the sequence (P42336 whole entry, canonical isoform) above, with H1047R counted along it

logD [1] | Ratio Ki (Homo sapiens [2]) | pKi [3] | solubility kinetic [4] | Papp A→B at 3 h, 10 µM [5] | clearance [6] | bioavailability [7] | pEC50 [9] | Activity [10] | SMILES | Ratio EC50 (Homo sapiens [8])
1.1 | 6 | 8.19 | 20 µM (≈ 7.95 µg/mL) |  |  |  |  |  | C[C@H]1CN(c2cn3c(n2)-c2ccc(N4CCC[C@H]4C(N)=O)cc2OCC3)C(=O)O1 | 
1.6 |  | 9.10 |  |  |  |  |  |  | NC(=O)[C@@H]1CCCN1c1ccc2c(c1)OCCn1cc(N3C(=O)CC[C@H]3C(F)(F)F)nc1-2 | 
0.7 | 6 | 8.42 | 44 µM (≈ 18.1 µg/mL) |  |  |  |  |  | NC(=O)[C@@H]1CCCN1c1ccc2c(c1)OCCn1cc(N3CCOCCC3=O)nc1-2 | 
0.6 | 15 | 8.24 | 200 µM (≈ 76.7 µg/mL) | 3.1 ×10⁻⁶ cm/s |  |  |  |  | NC(=O)[C@@H]1CCCN1c1ccc2c(c1)OCCn1cc(N3CCOC3=O)nc1-2 | 
 | 25 | 9.54 |  |  |  |  |  |  | NC(=O)[C@@H]1[C@H](F)CCN1c1ccc2c(c1)OCCn1cc(N3C(=O)OC[C@H]3C(F)(F)F)nc1-2 | 
0.9 | 171 | 10.02 |  | 1 ×10⁻⁶ cm/s | 57 mL/min/kg | 65% | 7.31 |  | C[C@H](Nc1ccc2c(c1)OCCn1cc(N3C(=O)OC[C@H]3C(F)(F)F)nc1-2)C(N)=O | 2.7
0.7 | 8 | 8.60 | 65 µM (≈ 25.8 µg/mL) |  |  |  |  |  | NC(=O)[C@@H]1CCCN1c1ccc2c(c1)OCCn1cc(N3CCOCC3=O)nc1-2 | 
0.9 | 4 | 8.50 | 154 µM (≈ 63.4 µg/mL) | 2.6 ×10⁻⁶ cm/s |  |  |  |  | CO[C@H]1CCN(c2cn3c(n2)-c2ccc(N4CCC[C@H]4C(N)=O)cc2OCC3)C1=O | 
1.5 | 8 | 10.59 | 92 µM (≈ 38.9 µg/mL) | 0.3 ×10⁻⁶ cm/s |  |  |  |  | CC(C)n1nc(N)nc1-c1cn2c(n1)-c1ccc(N3CCC[C@H]3C(N)=O)cc1OCC2 | 
1.4 | 146 | 9.80 |  | 1.7 ×10⁻⁶ cm/s | 91 mL/min/kg | 82% | 7.25 |  | CC[C@H](Nc1ccc2c(c1)OCCn1cc(N3C(=O)OC[C@H]3C(F)(F)F)nc1-2)C(N)=O | 3.6
2.2 | 14 |  |  |  |  |  |  |  | C[C@H](Oc1ccc2c(c1)OCCn1cc(-c3ncnn3CC(F)(F)F)nc1-2)C(N)=O | 
1.1 | 15 | 7.94 | 52 µM (≈ 20.7 µg/mL) |  |  |  |  |  | C[C@@H]1CN(c2cn3c(n2)-c2ccc(N4CCC[C@H]4C(N)=O)cc2OCC3)C(=O)O1 | 
1.8 | 22 | 10.38 | 131 µM (≈ 55.7 µg/mL) | 8.4 ×10⁻⁶ cm/s |  |  |  |  | CC(C)[C@@H]1COC(=O)N1c1cn2c(n1)-c1ccc(N3CCC[C@H]3C(N)=O)cc1OCC2 | 
 | 13 | 8.53 |  |  |  |  |  |  | NC(=O)[C@@H]1COCCN1c1ccc2c(c1)OCCn1cc(N3C(=O)OC[C@H]3C(F)(F)F)nc1-2 | 
0.7 |  |  |  | 0.8 ×10⁻⁶ cm/s | 63 mL/min/kg |  |  |  | NC(=O)[C@@H](Nc1ccc2c(c1)OCCn1cc(N3C(=O)OC[C@H]3CF)nc1-2)C1CC1 | 
1.5 | 15 | 10.21 |  | 1.5 ×10⁻⁶ cm/s | 50 mL/min/kg | 5% | 7.41 |  | C[C@H](Oc1ccc2c(c1)OCCn1cc(-c3nc(CO)nn3CC(F)(F)F)nc1-2)C(N)=O | 9.5
 | 52 |  |  |  |  |  |  |  | C[C@H](Oc1ccc2c(c1)OCCn1cc(N3C(=O)OC[C@H]3C(F)F)nc1-2)C(N)=O | 
 | 182 | 9.49 |  |  |  |  |  |  | NC(=O)[C@@H](Nc1ccc2c(c1)OCCn1cc(N3C(=O)OC[C@H]3C(F)(F)F)nc1-2)C1CCC1 | 
1.4 | 15 | 9.82 | 130 µM (≈ 58.7 µg/mL) | 3.2 ×10⁻⁶ cm/s | 35 mL/min/kg | 57% | 7.40 | Active | NC(=O)[C@@H]1CCCN1c1ccc2c(c1)OCCn1cc(N3C(=O)OC[C@H]3C(F)(F)F)nc1-2 | 
1.1 | 17 | 9.97 |  | 0.5 ×10⁻⁶ cm/s |  |  | 7.19 |  | CC(C)n1nc(N)nc1-c1cn2c(n1)-c1ccc(O[C@@H](C)C(N)=O)cc1OCC2 | 3.1
 | 9 | 7.52 |  |  |  |  |  |  | NC(=O)[C@@H]1CCCN1c1ccc2c(c1)OCCn1cc(N3CCCOC3=O)nc1-2 | 
 | 27 | 10.01 |  |  |  |  |  |  | CO[C@@H]1CCN(c2ccc3c(c2)OCCn2cc(N4C(=O)OC[C@H]4C(F)(F)F)nc2-3)[C@@H]1C(N)=O | 
0.7 | 24 |  | 150 µM (≈ 59.6 µg/mL) | 2.1 ×10⁻⁶ cm/s | 23 mL/min/kg | 59% |  |  | C[C@@H]1COC(=O)N1c1cn2c(n1)-c1ccc(N3CCC[C@H]3C(N)=O)cc1OCC2 | 
0.7 | 5 | 9.17 | 114 µM (≈ 48.4 µg/mL) | 0.3 ×10⁻⁶ cm/s |  |  |  |  | CC1(C)C(=O)NC(=O)N1c1cn2c(n1)-c1ccc(N3CCC[C@H]3C(N)=O)cc1OCC2 | 
0.8 | 8 | 8.49 | 137 µM (≈ 58.6 µg/mL) |  |  |  |  |  | COC[C@@H]1COC(=O)N1c1cn2c(n1)-c1ccc(N3CCC[C@H]3C(N)=O)cc1OCC2 | 
1.7 | 94 | 9.16 |  | 1.9 ×10⁻⁶ cm/s | 61 mL/min/kg | 137% | 6.80 |  | CC(C)[C@H](Nc1ccc2c(c1)OCCn1cc(N3C(=O)OC[C@H]3C(F)(F)F)nc1-2)C(N)=O | 2.3
1.2 | 7 | 9.36 | 2 µM (≈ 0.867 µg/mL) |  |  |  |  |  | NC(=O)[C@@H]1CCCN1c1ccc2c(c1)OCCn1cc(N3CCn4nccc4C3=O)nc1-2 | 
0.7 | 15 | 9.49 | 11 µM (≈ 4.53 µg/mL) |  |  |  |  |  | NC(=O)[C@@H]1CCCN1c1ccc2c(c1)OCCn1cc(N3CCCOCC3=O)nc1-2 | 
